Measured values as given in ChEMBL document CHEMBL4373676, “Non-lethal growth inhibition by arresting the starch utilization system of clinically relevant human isolates of Bacteroides dorei” (Medchemcomm, 2019).
Calls of active or inactive are those of the source. The calls are words filed in the database; no cut-off is given here.

Experiments:
[1] = Inhibition of starch utilization system in Bacteroides dorei JRO3 assessed as bacterial growth at 0.5 uM after 14 hrs in presence of potato starch by spectrophotometric analysis relative to untreated control; set-up: scale not given: the % may be the effect or the level left; settings: Phocaeicola dorei
[2] = Inhibition of starch utilizing system in Bacteroides dorei JRO4 assessed as microbial growth at 100 uM measured at 30 mins interval with 15 secs shaking for up to 48 hrs in presence of pullulan by spectrophotometric analysis relative to untreated control; set-up: scale not given: the % may be the effect or the level left; settings: Phocaeicola dorei
[3] = system: Phocaeicola dorei; assay: Effect on growth of Bacteroides dorei JRO2 assessed as microbial growth at 100 uM measured at 30 mins interval with 15 secs shaking for up to 48 hrs in presence of maltose by spectrophotometric analysis relative to untreated control; assay type: organism-based; settings: in vivo
[4] = Inhibition of starch utilizing system in Bacteroides dorei JRO1 assessed as microbial growth at 100 uM measured at 30 mins interval with 15 secs shaking for up to 48 hrs in presence of pullulan by spectrophotometric analysis relative to untreated control; set-up: scale not given: the % may be the effect or the level left; settings: Phocaeicola dorei
[5] = Inhibition of starch utilizing system in Bacteroides dorei JRO3 assessed as microbial growth at 100 uM measured at 30 mins interval with 15 secs shaking for up to 48 hrs in presence of pullulan by spectrophotometric analysis relative to untreated control; set-up: scale not given: the % may be the effect or the level left; settings: Phocaeicola dorei
[6] = Inhibition of starch utilization system in Bacteroides dorei JRO3 assessed as bacterial growth at 1 uM after 13.5 hrs in presence of pullulan by spectrophotometric analysis relative to untreated control; set-up: scale not given: the % may be the effect or the level left; settings: Phocaeicola dorei
[7] = Inhibition of starch utilizing system in Bacteroides dorei JRO4 assessed as microbial growth at 100 uM measured at 30 mins interval with 15 secs shaking for up to 48 hrs in presence of potato starch by spectrophotometric analysis relative to untreated control; set-up: scale not given: the % may be the effect or the level left; settings: Phocaeicola dorei
[8] = Inhibition of starch utilizing system in Bacteroides dorei JRO2 assessed as microbial growth at 100 uM measured at 30 mins interval with 15 secs shaking for up to 48 hrs in presence of potato starch by spectrophotometric analysis relative to untreated control; set-up: scale not given: the % may be the effect or the level left; settings: Phocaeicola dorei
[9] = system: Phocaeicola dorei; assay: Effect on growth of Bacteroides dorei JRO1 assessed as microbial growth at 100 uM measured at 30 mins interval with 15 secs shaking for up to 48 hrs in presence of glucose by spectrophotometric analysis relative to untreated control; assay type: organism-based; settings: in vivo
[10] = Inhibition of starch utilizing system in Bacteroides dorei JRO1 assessed as microbial growth at 100 uM measured at 30 mins interval with 15 secs shaking for up to 48 hrs in presence of potato starch by spectrophotometric analysis relative to untreated control; set-up: scale not given: the % may be the effect or the level left; settings: Phocaeicola dorei
[11] = Inhibition of starch utilization system in Bacteroides dorei JRO3 assessed as increase in doubling time at 0.1 to 10 uM in presence of potato by spectrophotometric analysis; settings: Phocaeicola dorei
[12] = Inhibition of starch utilization system in Bacteroides dorei JRO3 assessed as bacterial growth at 0.5 uM after 13.5 hrs in presence of pullulan by spectrophotometric analysis relative to untreated control; set-up: scale not given: the % may be the effect or the level left; settings: Phocaeicola dorei
[13] = Inhibition of starch utilization system in Bacteroides dorei JRO3 assessed as reduction in bacterial growth at 0.1 uM after 14 hrs in presence of potato starch by spectrophotometric analysis; settings: Phocaeicola dorei
[14] = Inhibition of starch utilization system in Bacteroides dorei JRO3 assessed as increase in lag time at 5 uM up to 48 hrs in presence of pullulan by spectrophotometric analysis; settings: Phocaeicola dorei
[15] = Inhibition of starch utilizing system in Bacteroides dorei JRO3 assessed as microbial growth at 100 uM measured at 30 mins interval with 15 secs shaking for up to 48 hrs in presence of potato starch by spectrophotometric analysis relative to untreated control; set-up: scale not given: the % may be the effect or the level left; settings: Phocaeicola dorei
[16] = system: Phocaeicola dorei; assay: Effect on growth of Bacteroides dorei JRO1 assessed as microbial growth at 100 uM measured at 30 mins interval with 15 secs shaking for up to 48 hrs in presence of maltose by spectrophotometric analysis relative to untreated control; assay type: organism-based; settings: in vivo
[17] = Inhibition of starch utilization system in Bacteroides dorei JRO3 assessed as reduction in bacterial growth at 0.1 uM after 13.5 hrs in presence of pullulan by spectrophotometric analysis; settings: Phocaeicola dorei
[18] = Inhibition of starch utilizing system in Bacteroides dorei JRO2 assessed as microbial growth at 100 uM measured at 30 mins interval with 15 secs shaking for up to 48 hrs in presence of pullulan by spectrophotometric analysis relative to untreated control; set-up: scale not given: the % may be the effect or the level left; settings: Phocaeicola dorei
[19] = Inhibition of starch utilization system in Bacteroides dorei JRO3 assessed as bacterial growth at 1 uM after 14 hrs in presence of potato starch by spectrophotometric analysis relative to untreated control; set-up: scale not given: the % may be the effect or the level left; settings: Phocaeicola dorei
[20] = system: Phocaeicola dorei; assay: Effect on growth of Bacteroides dorei JRO2 assessed as microbial growth at 100 uM measured at 30 mins interval with 15 secs shaking for up to 48 hrs in presence of glucose by spectrophotometric analysis relative to untreated control; assay type: organism-based; settings: in vivo
[21] = system: Phocaeicola dorei; assay: Effect on growth of Bacteroides dorei JRO4 assessed as microbial growth at 100 uM measured at 30 mins interval with 15 secs shaking for up to 48 hrs in presence of glucose by spectrophotometric analysis relative to untreated control; assay type: organism-based; settings: in vivo
[22] = Inhibition of starch utilization system in Bacteroides dorei JRO3 assessed as increase in lag time at 0.1 to 10 uM up to 48 hrs in presence of potato starch by spectrophotometric analysis; settings: Phocaeicola dorei
[23] = system: Phocaeicola dorei; assay: Effect on growth of Bacteroides dorei JRO3 assessed as microbial growth at 100 uM measured at 30 mins interval with 15 secs shaking for up to 48 hrs in presence of maltose by spectrophotometric analysis relative to untreated control; assay type: organism-based; settings: in vivo
[24] = system: Phocaeicola dorei; assay: Effect on growth of Bacteroides dorei JRO4 assessed as microbial growth at 100 uM measured at 30 mins interval with 15 secs shaking for up to 48 hrs in presence of maltose by spectrophotometric analysis relative to untreated control; assay type: organism-based; settings: in vivo
[25] = Inhibition of starch utilization system in Bacteroides dorei JRO3 assessed as bacterial growth at 5 uM after 13.5 hrs in presence of pullulan by spectrophotometric analysis relative to untreated control; set-up: scale not given: the % may be the effect or the level left; settings: Phocaeicola dorei
[26] = system: Phocaeicola dorei; assay: Effect on growth of Bacteroides dorei JRO3 assessed as microbial growth at 100 uM measured at 30 mins interval with 15 secs shaking for up to 48 hrs in presence of glucose by spectrophotometric analysis relative to untreated control; assay type: organism-based; settings: in vivo
[27] = Inhibition of starch utilization system in Bacteroides dorei JRO3 assessed as bacterial growth at 5 uM after 14 hrs in presence of potato starch by spectrophotometric analysis relative to untreated control; set-up: scale not given: the % may be the effect or the level left; settings: Phocaeicola dorei
[28] = Inhibition of starch utilization system in Bacteroides dorei JRO3 assessed as increase in doubling time at 10 uM in presence of pullulan by spectrophotometric analysis; settings: Phocaeicola dorei

With `C[C@H]1O[C@H](O[C@H]2[C@H](O)[C@@H](O)[C@@H](O[C@H]3[C@H](O)[C@@H](O)C(O)O[C@@H]3CO)O[C@@H]2CO)[C@H](O)[C@@H](O)[C@@H]1N[C@H]1C=C(CO)[C@@H](O)[C@H](O)[C@H]1O` (stereo partly drawn) [ACARBOSE] as the compound, how does the Activity [1] read?
Its Activity is 59.9%.

What about the Activity [2] of the same compound?
The Activity was 4.8%.

And the Activity [3]?
The Activity was 99.4%.

And the Activity [4]?
The Activity was 6.5%.

What about the Activity [5] of the same compound?
The Activity was 10.4%.

What about the Activity [6] of the same compound?
Its Activity is 21.3%.

And the Activity [7]?
Its Activity is 2.4%.

What about the Activity [8] of the same compound?
The Activity was 3.7%.

And the Activity [9]?
The Activity was 100.7%.

And the Activity [10]?
Its Activity is 3.9%.

And the inhibition [11]?
The inhibition was “Active”.

And the Activity [12]?
Its Activity is 49.9%.

What about the inhibition [13] of the same compound?
Its inhibition is “inactive”.

What about the inhibition [14] of the same compound?
Its inhibition is “Active”.

And the Activity [15]?
The Activity was 2.6%.

And the Activity [16]?
Its Activity is 103%.

And the inhibition [17]?
Its inhibition is “inactive”.

And the Activity [18]?
Its Activity is 10.1%.

What about the Activity [19] of the same compound?
Its Activity is 28.2%.

And the Activity [20]?
The Activity was 100%.

And the Activity [21]?
Its Activity is 105.8%.

What about the inhibition [22] of the same compound?
Its inhibition is “inactive”.

What about the Activity [23] of the same compound?
The Activity was 123.3%.

What about the Activity [24] of the same compound?
Its Activity is 71.8%.

And the Activity [25]?
The Activity was 11.2%.

And the Activity [26]?
Its Activity is 118.7%.

And the Activity [27]?
The Activity was 6.6%.

What about the inhibition [28] of the same compound?
The inhibition was “Active”.
